Like-named read-outs stand apart in the source and are kept apart here.
Tests used:
[1] = Dissolving compounds to make 10 mM stock solution; assay type: physicochemical; details: deionized water or assay friendly solvents, hot water
Description: Following assay establishment, the test compounds were tested for binding affinities. The concentrations selected for the experiments were chosen according to what was found for memantine in our assay. The first task was to dissolve the compounds and make up the 10 mM stock solution for further experiments. Those compounds that were made into salt format were easy to dissolve in deionized water, but the other compounds were difficult to bring into solution. Several “assay friendly” solvents have been tried, such as molecusol, acetic acid and propylene glycol followed by putting the vial into hot water.

C57/BL6 male mice [2] = details: for # of deaths / # of extensions: 6 mice
NMDA receptor = test: Whole-cell voltage-clamp recordings of NMDA evoked currents in hypocretin neurons (hypothalamic slices); assay type: cell-based, mouse; details: for inhibition of the peak amplitude of NMDA evoked currents: bath application, -60 mV, mean±SEM
[3] = system: primary neurons from rat cerebral cortex; test: NMDA-induced LDH release assay in primary cortical neurons (neuroprotection); assay type: cell-based; details: Rattus norvegicus, Primary neuron; two experiments; 300 uM NMDA + 50 μM glycine 15 minutes, LDH after 24 hours; read-out: average EC50 (±SD), NMDA-induced LDH release
In short: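 Fetal rat (E16–E18) cortical neurons on mouse astroglial feeder layers, fed growth medium/neurobasal+B27 (1:1), used after 11–14 days. Treatments given in Locke's buffer pH 7.4 for 15 min, then cells washed; 24 h later percent LDH released = 100×secreted/(total+secreted), tetrazolium readout.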

C57/BL6 male mice [4] = test: Pentylenetetrazol (PTZ)-induced seizure/death model; assay type: in vivo, mouse; details: for # mice with L3 seizure / # mice with L4 seizure / # of deaths within 30 min: 6 mice; for Time to death: mice that died within 30 min
Description: Although the protection against death is the key endpoint, other effects of the compounds on PTZ-induced seizures were also assessed using multiple parameters. For the mice that did die within the 30 minute observation window, the time of death was also compared. […] The seizure occurrence rate, onset time and number of level 3 (L3) seizure (repetitive seizures but the animal can still stand) and level 4 (L4) seizure (repetitive seizures and the animal loses righting) are also analyzed. The MDT compound (30 mg/kg) treated groups show a certain degree of improvement compared to control. No data from MK801 or memantine were included because the seizures occurring under these treatments are totally different from the control or MDT injected groups due to side effects (“high jumping”).

C57/BL6 male mice [5] = test: Rotarod test (balance and coordination, side effects)
Description: The side effects of the compounds was primarily evaluated using the rotarod test, which mainly assesses the balancing and coordination of mice. The comparisons were made on fall time of the mice between the first measure (pre-treatment) and second measure taken 20 min after the drug/vehicle injection in the same group (paired t-test). […] Comparisons of the rotatod fall times after drug/vehicle dosing were made between drug treatment and control groups (unpaired t-test).

In the case of `O=C(O)C12CC3CC4C1CC1CC2C(C3)C4(C(=O)O)C1` [MDT-19], the “dissolution for 10 mM stock solution” value [1] is reported as “did not go into solution, or came out with time”.
In the case of `O=C(O)C12CC3C4CC5(C(=O)O)CC3C(C1)C(C5)C4C2` [MDT-20], the “dissolution for 10 mM stock solution” value [1] is reported as “did not go into solution, or came out with time”.
For `CC12CC3(N)CC4C5CC(CC41)CC2C5C3` [MDT-22, 1-methyl-9-aminodiamantane], the Extension rate (C57/BL6 male mice [2]; 10 mg/kg i.p.) was 1.00, the Mortality rate (C57/BL6 male mice [2]; 10 mg/kg i.p.) was 0.50 and the “# of deaths” value (C57/BL6 male mice [2]; 10 mg/kg i.p.) was 3. For the same compound, the “# of extensions” value (C57/BL6 male mice [2]; 10 mg/kg i.p.) was 6, the Extension rate (C57/BL6 male mice [2]; 30 mg/kg i.p.) was 0.83 and the Mortality rate (C57/BL6 male mice [2]; 30 mg/kg i.p.) was 0.33. The “# of deaths” value (C57/BL6 male mice [2]; 30 mg/kg i.p.) was 2, the “# of extensions” value (C57/BL6 male mice [2]; 30 mg/kg i.p.) was 5 and the MES-induced death (C57/BL6 male mice [2]; 10 and 30 mg/kg i.p., mice) was “dose dependent reduction in MES-induced death”. The “inhibition of the peak amplitude of NMDA evoked currents” value (NMDA receptor; 10 μM) was 19±3.1%, the “inhibition of the peak amplitude of NMDA evoked currents” value (NMDA receptor; 100 μM) was 45±12.1% and the “reversibility of inhibition of NMDA evoked currents upon washout” value (NMDA receptor; washout of the compound) was “reversible”. The EC50 [3] was 56.5 ± 14.6 µM, the “# L3 per mouse” value (C57/BL6 male mice [4]; 10 mg/kg i.p.) was 2.00 ± 0.58 and the “# L4 per mouse” value (C57/BL6 male mice [4]; 10 mg/kg i.p.) was 3.85 ± 2.28. The L3 onset time (C57/BL6 male mice [4]; 10 mg/kg i.p.) was 2.80 ± 1.00 min, the L3 seizure rate (C57/BL6 male mice [4]; 10 mg/kg i.p.) was 0.50 and the L4 onset time (C57/BL6 male mice [4]; 10 mg/kg i.p.) was 7.90 ± 1.70 min. For the same compound, the L4 seizure rate (C57/BL6 male mice [4]; 10 mg/kg i.p.) was 1.00, the Mortality rate (C57/BL6 male mice [4]; 10 mg/kg i.p.) was 1.00 and the “# mice with L3 seizure” value (C57/BL6 male mice [4]; 10 mg/kg i.p.) was 3. For the same compound, the “# mice with L4 seizure” value (C57/BL6 male mice [4]; 10 mg/kg i.p.) was 6, the “# of deaths within 30 min” value (C57/BL6 male mice [4]; 10 mg/kg i.p., PTZ 100 mg/kg) was 6 and the Time to death (C57/BL6 male mice [4]; 10 mg/kg i.p.) was 9.60 ± 1.80 min. The “# L3 per mouse” value (C57/BL6 male mice [4]; 30 mg/kg i.p.) was 1.67 ± 0.50, the “# L4 per mouse” value (C57/BL6 male mice [4]; 30 mg/kg i.p.) was 1.17 ± 0.19 and the L3 onset time (C57/BL6 male mice [4]; 30 mg/kg i.p.) was 5.10 ± 2.30 min. For the same compound, the L3 seizure rate (C57/BL6 male mice [4]; 30 mg/kg i.p.) was 1.00, the L4 onset time (C57/BL6 male mice [4]; 30 mg/kg i.p.) was 10.20 ± 3.00 min and the L4 seizure rate (C57/BL6 male mice [4]; 30 mg/kg i.p.) was 1.00. For the same compound, the Mortality rate (C57/BL6 male mice [4]; 30 mg/kg i.p.) was 0.67, the “# mice with L3 seizure” value (C57/BL6 male mice [4]; 30 mg/kg i.p.) was 6 and the “# mice with L4 seizure” value (C57/BL6 male mice [4]; 30 mg/kg i.p.) was 6. For the same compound, the “# of deaths within 30 min” value (C57/BL6 male mice [4]; 30 mg/kg i.p., PTZ 100 mg/kg) was 4, the Time to death (C57/BL6 male mice [4]; 30 mg/kg i.p.) was 7.70 ± 2.10 min and the PTZ-induced death (C57/BL6 male mice [4]; 10 and 30 mg/kg i.p., PTZ 100 mg/kg, 30 min observation) was “a certain reduction in PTZ-induced death”. For the same compound, the “Fall Time” value (C57/BL6 male mice [5]; after, 20 min after 10 mg/kg i.p.) was 44.58 ± 4.58 min, the “Fall Time” value (C57/BL6 male mice [5]; after, 20 min after 30 mg/kg i.p.) was 44.93 ± 5.45 min and the “Fall Time” value (C57/BL6 male mice [5]; before (pre-treatment), 10 mg/kg group) was 33.56 ± 3.91 min. The “Fall Time” value (C57/BL6 male mice [5]; before (pre-treatment), 30 mg/kg group) was 45.03 ± 6.02 min.
In the case of `O=C(O)C12CC3CC4C5CC(CC41)CC2C5C3` [MDT-17], the “dissolution for 10 mM stock solution” value [1] is reported as “did not go into solution, or came out with time”.

— patent publication US20080009546A1 (Chevron U.S.A. Inc., priority 2005, published 2008)
